Measured values taken from US20190183100A1, “ANIMAL MODELS FOR POLYCYSTIC KIDNEY DISEASE” (Recombinetics, Inc., priority 2017, published 2019).

Columns and labels:
[1] = system: PKD1^FLEX-CreER2; assay: Tamoxifen activation of PKD1^FLEX-CreER2 cassette in LLC-PK1 cells in vitro; assay type: cell-based, pig; conditions: after tamoxifen treatment, LLC-PK1 targeted cells, expected
Protocol: Testing of PKD1^FLEX-CreER2 is conducted using the immortalized pig kidney cell line, LLC-PK1. Prior to conducting studies with the cassette integrated into cells, the efficacy of Cre recombination is optimized in transient transfections +/− tamoxifen and measure recombination by qPCR.
In vitro testing in the LLC-PK1, PKD1^FLEX-CreER2 targeted cells: The model cells developed above are treated in triplicate with 3 dosages of tamoxifen, and compared to non-treated cells. Percent recombination of the PKD1^FLEX-CreER2 cassette is analyzed visually for the loss of EGFP using FACS and molecularly by quantitative PCR for molecular quantification of recombination. Splicing of the PKD1^FLEX-CreER2 cassette is analyzed before and after recombination by RT-PCR from exon 14 to exon 16, followed by Sanger sequencing and qRT-PCR using primers spanning exon junctions of E14-15 and E15-16 respectively. Finally, induced and non-induced populations are compared at the protein level by western blotting.

[2] = system: porcine PKHD1; assay: Cytoplasmic injection of parthenogenetic pig embryos, single blastocyst RFLP assay and sequencing; assay type: cell-based; conditions: for RFLP In Embryos: pig embryos, with HDR template; for NHEJ n (%): R3229Q introgression
Protocol: The best performing combinations of TALENs and CRISPRs identified above, are evaluated in vitro by injection of in vitro matured (IVM) parthenogenetic pig embryos (FIG. 9C). […] In a small pilot study targeting porcine PDX1, 80% of alleles injected with a TALEN dosage of 40 ng/μl were able to be mutated, with nearly half of those directed to a particular edit by a homology template (FIG. 11B). FIG. 11A illustrates the steps required in production of in vitro matured pig embryos for microinjection. FIG. 11B illustrates the difference in percent success which using different concentrations of editing reagents for the PDX1 gene. A similar dosage escalation study is used to optimize for T36M introgression that balances survival of embryos in vitro with editing efficiency.
HDR efficiency was inversely associated with Cas9 dosage (50 vs 80% HDR) from highest to lowest concentration (Table 12 and FIG. 13A) likely a result of hyperactive cutting in the high concentration group. The fidelity of HDR events was further confirmed by sequencing (FIG. 13B) which confirms that the wild type triplet “ACA” coding, for threonine has been converted to “ATG” coding for methionine (FIG. 9A) using the template HDR sequence. Overall, condition C3, 25 ng/ul of Cas9, 12.5 ng/ul of gRNA and 50 ng/μl of ssHDR, was optimal for both blastocyst formation rate and HDR activity. If this site proves problematic, alternative missense mutations commonly observed in more than one family of ARPKD patients, such as I3553T, I222V, P805L or R3229Q are introgressed.
By the same process as Example 8, R3229Q was engineered into the PKHD1 gene. R3229Q is the equivalent mutation to R3240Q in humans (FIG. 16A), which in a homozygous state causes moderate ARPKD. Also, as noted previously, the annotation of PKHD1 has changed since initial contigs placed R3240Q in exon 58 versus exon 65. Also, R3240Q in humans, maps to different residue numbers in pigs based on transcript selected. […] Injections into parthenogenetic embryos were performed as before, with two conditions using a ssODN as the homology template ssPKHD1 65.1 3240 R to Q (Table 10); C1 (100/50/50) (Cas9 mRNA/gRNA65.1/homology template, all ng/μl) and C3 (25/12.5/50) (Cas9 mRNA/gRNA65.1/homology template, all ng/μl) (Table 9). […] HDR was also prevalent in the C3 condition (75%) whereas total mutation rate (indels+HDR alleles) was 100 and 95% for C1 and C3 respectively. […] Blastocyst 3.19 is homozygous for R3229Q while 3.12 has one HDR allele and one indel allele.

[3] = system: porcine PKHD1; assay: Injection of in vivo produced porcine embryos, genotype of born piglets; parameters: species or system pig; conditions: 22 piglets, litters 115 and 116, condition C3
Protocol: Founder animals for ARPKD were produced using the process of Example 8 with minor changes. The T36M reagents (ssPKHD1 CRISPR 3.1 and template ssPKHD1 3.1 36 T to M) were injected into in vivo produced porcine embryos at the 1 or 2 cell stage. Condition C3 was used for injection and the 60 resulting embryos were split equally between to synchronized recipients. A total of 22 piglets were born, 14 from one surrogate (litter ID 115) and 8 from the other (litter ID 116). Newborn piglets were visually assessed for fitness and four, 115-1, 115-2, 115-3 and 115-8 were reluctant to suckle from their mothers and had visible abdominal distension (Table 14). […] Each of the remaining piglets was analyzed for a visible phenotype at 20 days of age (Table 14). Genotype of the piglet was a strong indicator of disease severity as 115-1, 115-2, 115-3 and 115-8 are predicted to have null mutations on each allele while mild cases had some combination of T36M mutation or single allele mutations (Table 14). Overall, ˜55% of offspring were mutant with 5 showing T36M mutations (Table 15). This rate is lower than observed above. A key difference is the embryos source. Parthenogenetic embryos were used in previous experiments where timing of activation is tightly controlled. In contrast, this experiment used in vivo produced embryos (bred sows, embryos collected ˜18 hours post fertilization) where timing is variable. However, the hypothesis that a variety of disease alleles and severities could be produced in a single litter was confirmed.

[4] = system: porcine PKHD1; assay: Surveyor assay (cutting) and RFLP analysis (HDR) in transfected pig fibroblasts; assay type: cell-based; conditions: for activity among the TALENs and CRISPR gRNAs tested for the target: comparison of reagents developed for the same target; for cutting, In Fibroblast Cells Incubated at 30° / RFLP, In Fibroblast Cells Incubated at 30° / cutting, In Fibroblast Cells Incubated at 37° / RFLP, In Fibroblast Cells Incubated at 37°: pig fibroblasts; for cutting, In Fibroblast Cells Incubated at 30° / RFLP, In Fibroblast Cells Incubated at 30°: 30 degrees C; for cutting, In Fibroblast Cells Incubated at 30° / cutting, In Fibroblast Cells Incubated at 37°: three days recovery, Surveyor assay; for RFLP, In Fibroblast Cells Incubated at 30° / RFLP, In Fibroblast Cells Incubated at 37°: with HDR template, RFLP assay; for cutting, In Fibroblast Cells Incubated at 37° / RFLP, In Fibroblast Cells Incubated at 37°: 37 degrees C
Excerpt: FIG. 12A, FIG. 12B: T36M introgression in cells. […] The region is highly conserved and threonine acid at position 36 in humans corresponds to residue 36 in pigs. Threonine acid 36 is identified in pig genomic DNA sequence, and […] (maroon arrow) are designed to cleave near T36. FIG. 12A also discloses SEQ ID NO: 118. […] It should be noted that position 3553 in pigs is a Valine residue and not pathogenic; henceforth this mutation will be referred to as either I3553T or V3553T. The cells were recovered for three days at 30 and 37 degrees C. prior to quantification of activity by the Surveyor assay and RFLP analysis with the Nsp1 restriction enzyme. The arrowheads depict the expected size of cleavage products for the Surveyor assay or RFLP assay.
A number of quality sites for TALENs and CRISPRs are ideally positioned for HDR mediated introgression the T36M mutation (Table 7, Table 8, Table 9). The assembled reagents are tested in pig fetal fibroblasts and embryos using standard operating procedures (SOPs) (FIG. 9B). Using these methods, hundreds of loci in pig and cattle have been successfully targeted, with efficiencies ranging from 5-75% in cultured cells.
For introgression of T36M into the porcine genome, two CRISPR Cas9 gRNAs and TALENs were tested in pig fibroblasts and embryos to optimize conditions (FIG. 12A, FIG. 12B, Table 7, Table 8, Table 9).

[5] = C1 (100/50/50) ng/μl Cas9/gRNA/ssODN, T36M template
[6] = C2 (50/25/50) ng/μl Cas9/gRNA/ssODN, T36M template
[7] = C3 (25/12.5/50) ng/μl Cas9/gRNA/ssODN, T36M template

| Compound | RFLP In Embryos [2] | activity among the TALENs and CRISPR gRNAs tested for the target [4] | cutting, In Fibroblast Cells Incubated at 30° [4] | RFLP, In Fibroblast Cells Incubated at 30° [4] | cutting, In Fibroblast Cells Incubated at 37° [4] | RFLP, In Fibroblast Cells Incubated at 37° [4] | also measured |
| --- | --- | --- | --- | --- | --- | --- | --- |
| CC/C(=C(\c1ccccc1)c1ccc(OCCN(C)C)cc1)c1ccccc1 [tamoxifen] | – | – | – | – | – | – | activation of the integrated PKD1^FLEX-CreER2 cassette [1]: > 80% |
| ssPKHD1 CRISPR 3.1: CRISPR guide RNA (SEQ ID NO: 103) targeting exon 3 of porcine PKHD1, used with Cas9 mRNA and T36M HDR template (guide GGATTACCGTGTTCTTCGATGG; chemistry not given here) | 80% RFLP | greatest activity in cells | 0% cutting | RFLP detected, too | 30.8% cutting | RFLP 44.7% | Mutated n (%) [2, 5]: 17 (94.4%); NHEJ^− n (%) [2, 5]: 7 (38.8%); HDR^+ n (%) [2, 6]: 11 (55.0%); Mutated n (%) [2, 6]: 19 (95.0%); NHEJ^− n (%) [2, 6]: 8 (40.0%); Mutated n (%) [2, 7]: 19 (95.0%); NHEJ^− n (%) [2, 7]: 3 (15.0%); embryos mutated ([2]; CRISPR/Cas9 dosage of 25-100 ng/μl): Up to 95%; blastocyst formation rate (toxicity by embryo development analysis) ([2]; cytoplasmic injection with HDR oligo at C1, C2, C3, highest in C3): high in each group; Heterozygous T36M % (number) [3]: 9% (2/22); Homozygous T36M % (number) [3]: 13.6% (3/22); Wild type % (number) [3]: 45.5% (10/22); RFLP, In Fibroblast Cells Incubated at 37° ([4]; listed as CRISPR 3.1): up to 44.7% |
| ssPKHD1 CRISPR 65.1: CRISPR guide RNA (SEQ ID NO: 105) for R3229Q (human R3240Q) introgression into porcine PKHD1 (guide GGGGTCGAGTTGGTATATTGTGG; chemistry not given here) | 89% | greatest activity | Cutting detected, too | 7.3% RFLP | Cutting detected, too | 11% RFLP | NHEJ n (%) ([2]; C1 (100/50/50) ng/μl): 2 (10.5%); NHEJ n (%) ([2]; C3 (25/12.5/50) ng/μl): 4 (15.0%) |
| ssPKHD1 CRISPR 3.2: CRISPR guide RNA (SEQ ID NO: 104) targeting exon 3 of porcine PKHD1 (guide GCAGCCTCGCAGGGGGAACATGG; chemistry not given here) | 0% RFLP | – | 0% cutting at 30 | RFLP detected, too | 0% cutting at 37 | RFLP detected, too | – |
